Test results as given in US10590116B2, “3-indolyl furanoids as inhibitors of matrix metalloproteinase-9 for prevention of gastric ulcer and other inflammatory diseases” (Council of Scientific & Industrial Research, priority 2017, dated 2020).

What was measured:
[1] = test system: apoptosis of gastric mucosa; experiment: TUNEL assay of gastric tissue sections; assay type: in vivo; conditions: indomethacin ulcerated mice
Description: To understand the fine information about the physical condition (the level of damage and/or intactness) of cells tissues under observation, different tissue samples were fixed in 10% formalin and embedded in paraffin. Tissue sections were deparaffinized with xylene and rehydrated with descending alcohol series. The sections were cut using microtome, and stained with hematoxylin and eosin, or subjected to Terminal deoxynucleotidyl transferase-mediated dUTP Nick End Labeling (TUNEL) assay by using a in situ apoptosis detection kit. Fixation, permeabilization, and staining were carried out in exact parallel to ensure comparative significance among normal, ulcerated and compound 5 treated groups. […] Images at 10× and 40× magnification were captured using Camedia software (E-20P 5.0 Megapixel) and processed under Adobe Photoshop version 7.0 (FIG. 1B).
Tissue sections were stained with hematoxylin and eosin stain. Fixation, permeabilization, and staining were carried out in parallel in normal, ulcerated and compound 5 treated groups to ensure comparative significance among different treatment. TUNEL assay is used for detection and quantification of apoptosis in gastric tissues, based on labelling of DNA strand breaks. Terminal deoxynucleotidyl transferase-mediated dUTP Nick End Labeling (TUNEL) assay was performed by using an in situ apoptosis detection kit. […]

[2] = test system: lipid peroxide content (TBARS); experiment: Measurement of lipid peroxidation (TBARS) in gastric tissue homogenate; assay type: in vivo; conditions: ulcerated mice
Protocol: The fundic stomach homogenate was used for measurement of lipid peroxide content as thiobarbituric acid reactive species (TBARS).
The cytosolic fraction from the gastric tissue homogenate was used for measurement of lipid peroxide content as thiobarbituric acid reactive species (TBARS). Briefly, 1 mL of the cytosolic fraction was allowed to react with 2 mL of TCA-TBA-HCl (15% TCA, 0.375% TBA, 0.25 N HCl) reagent, heated in a boiling water-bath for 15 min, cooled and centrifuged. The absorbance of the supernatant was measured for nano moles of TBARS at 535 nm (ε=1.5×10^5/M/cm).

[3] = Toxicity studies through repeat daily dosing; assay type: in vivo
Protocol: FIG. 4 gives the In vivo toxicity test. Male and female BALB/c mice (n=10) received indicated doses of compound 5 by daily gavage. Control mice received vehicle (olive oil). Body weights were determined 4 days before the start of the treatment and then throughout the period of treatment until day 25. Data points represent mean body weight.
The purpose of this study was to assess the efficacy of prolonged oral compound 5 treatment and ascertaining adverse impact, if any. […] The female mice were, on an average, 4 g lighter than male mice which is consistent with the common sex-specific weight difference.

[4] = Pharmacokinetic profiling in rat; assay type: in vivo, Sprague Dawley rats; conditions: single dose 250 mg/kg oral gavage, male rats, plasma
Protocol: Male sprague dawley rats (n=6) received a single dose of 250 mg/kg body weight compound 5 by oral gavage. Compound 5 levels in plasma were determined by HPLC. Values represent mean plasma levels.
Column chromatography was carried out using silica gel 100-200 mesh. Analytical thin-layer chromatography (TLC) was performed with silica gel 60 F254 aluminium sheets. ^1H NMR spectra were recorded on a Bruker DPX 300 MHz or Bruker DRX 600 MHz NMR instrument at ambient temperature in CDCl3, CD3OD or DMSO-d6. ^13C NMR spectra were recorded at 75 MHz or 150 MHz at ambient temperature. The chemical shifts were recorded in parts per million (ppm) with TMS as internal reference. All ^13C NMR spectra were recorded with complete proton decoupling. Mass spectral data refer to EIMS or ESIMS and are recorded in m/z unit. DI-EIMS were recorded on a GC-MS Shimadzu-QP5050A and ESIMS were done on a Waters® Micromass® Q-TOF Mass Spectrometer. Melting points are recorded on a SPAC-N SERVICE (India) melting point apparatus (Laboratory device) in open capillaries and are uncorrected. Elemental analyses were performed by Perkin-Elmer CHN/O analyzer model 2400, series II. HPLC analysis of plasma samples were performed on a Shimadzu Model SPD-M10Avp equipped with LC-10ATvp HPLC pump, Hamamatsu Deuterium Lamp type L6585 photodiode array detector. Chromatography was achieved using a Phenomenex Luna 5 μm C18 (2) 100 Å LC Column (150×4.6 mm I. D.) with Guard Cartridges C18 (4×3.0 mm). The mobile phase consisted of 15% water in acetonitrile, and solutes were eluted using a flow rate 1.0 mL/min. The column was re-equilibrated at initial conditions for 5 min before the next analysis. Analytical HPLC conditions were as follows: column, Pheomenex C18 (250 mm×4.6 mm, particle size 5 μm) with solvent combination of 0.5-1.0% TFA in water:acetonitrile in various ratios at a flow rate of 0.5-1.0 mL/min, detection at 254 nm. Purity of tested compounds was established by analytical reverse phase HPLC, confirming a purity of at least 95%. Unless otherwise stated, reagents were procured from commercial sources and were used without further purification.
In order to assess the time course of action and disposition of compound 5 in vivo, pharmacokinetic studies in Sprague Dawley rats were conducted. The curve was linear in the range investigated and the extraction efficiency was greater than 70%.

[5] = 150 or 300 mg/kg body weight/day for 25 days, daily gavage

With `COc1cccc2[nH]cc(-c3cc(-c4ccccc4)oc3-c3ccccc3)c12` [compound 5, 4-methoxy-3-(2,5-diphenylfuran-3-yl)-1H-indole] the “apoptosis of gastric mucosa (TUNEL)” value [1] was “suppression of apoptosis”, the Lipid peroxidation [2] was 0.47±0.15 nmol TBARS/mg tissue and the Lipid peroxidation ([2]; listed as Compound 5) was 0.47 ± 0.15 nmol TBARS/mg tissue. For the same compound, the “body weight, treated versus control groups” value [3, 5] was “no differences in body weight”, the “clinical signs of toxicity (lethargy, abdominal distension, fur loss, hunching)” value [3, 5] was “no clinical signs of toxicity” and the “toxicity, general statement” value ([3]; mouse, in vivo) was “non-toxic”. For the same compound, the Cmax ([4]; Sprague-Dawley, rat) was 104 µg/mL, the Tmax ([4]; Sprague-Dawley, rat) was about 6 h and the half-life ([4]; Sprague-Dawley, rat) was 7 h. For the same compound, the “area under the curve” value [4] was 1273.8 µg·h/mL.
